Measurements reported in patent publication US20090018120A1, “AMIDINE DERIVATIVES AND THEIR APPLICATIONS AS A MEDICAMENT” (priority 2005, published 2009).
Values joined by “and” are separate entries in the source; they are usually repeats but may differ in a detail not shown here. Equal values may be shown once. Read-outs that look alike come from different tables or passages of the source.

How the values were obtained:
[1] = system: neuromast ciliated cells of Zebrafish; assay: Ototoxicity induced by gentamycin in Zebrafish: protection of neuromast ciliated cells (DASPEI staining); assay type: in vivo; conditions: for EC50: Danio rerio, 0, 25, 50, 100 μM, co-treatment with gentamycin 1 μg/ml, concentration which allows 50% of stained cells to be visualized, read-out: EC50 μM (survival of the ciliated cells in % of the control); for control % (% staining signal of the ciliated cells): positive control = 100%
Excerpt: Ototoxicity Induced after a Treatment with Gentamycin: Protective Effect of the Compounds According to the Invention
Principle of the test: gentamycin and other aminoglycosides cause damage to ciliated cells and a hearing loss in humans. Zebrafish have sensory organs known as neuromasts on the surface of their body. These neuromast ciliated cells are structurally and functionally similar to the internal ciliated cells of the human ear. In these fish, the neuromast ciliated cells can be stained with DASPEI (2,4-dimethyl-aminostyryl-N-ethyl pyridinium iodide) and this staining reflects the number of functional ciliated cells.
Damage to the internal ciliated cells is induced in the Zebrafish with a gentamycin treatment. In order to test the protective effect of the compound to be tested on ciliated cells damaged by gentamycin, the compound was administered as a co-treatment with gentamycin. The internal ciliated cells are then stained and quantified.
The study is carried out on 5-day old fish, incubated with 1 μg/ml of gentamycin for 24 hours in the presence or the absence of the compound. Controls are carried out in parallel; vehicle alone (1% DMSO; positive control). Fish treated with gentamycin only are the negative controls.
The EC50 (concentration of the substance to be tested which protects 50% of the cells from cell death) is calculated from this concentration-effect.
The DASPEI staining is carried out to visualize the ciliated cells in vivo (n=6 per group). Morphometric analysis is used to quantify the staining signal of the ciliated cells. The DASPEI staining signal of the positive controls was defined as 100%.
Positive control (Zebrafish-1% DMSO); Negative control (Zebrafish-1% DMSO-gentamycin 1 μg/ml) and effect of the products (Zebrafish-1% DMSO-gentamycin-compound). Experiment carried out on 6 animals per group.

calpain = assay: Effect in situ on the calpain enzymatic activity of human skeletal cells (SKM), maitotoxin-activated, Suc-Leu-Tyr-AMC substrate; assay type: cell-based; conditions: read-out: IC50 (concentration which inhibits 50% of the enzyme activity), SKM myotubes, 3 h at 30° C.
Description: Effect In Situ of the Compounds According to the Invention on the Calpain Enzymatic Activity of Human Skeletal Cells (SKM)
The principle of the test is the following: maitotoxin is a toxin which causes the opening of the calcium channels of cells. The resulting intra-cellular flow of calcium is at the origin of the death of the cell. During this process of cell death, a cysteine-dependent protease, calpain, is activated. The test consists of incubating the cells in the presence of maitotoxin, in order to activate the calpain enzyme, and adding a calpain substrate which fluoresces when the enzyme cleaves this substrate. Finally, calpain inhibitors are tested.
The myoblasts are seeded at 2500 cells per well in 96-well plates in a DMEM 10% FCS (foetal calf serum) culture medium supplemented with amphotericin B, human recombinant epidermal growth factor and dexamethasone. Three days after seeding, the cells have adhered to the bottom of the well, the differentiation of the cells to myotubes is induced by adding 100 μl of DMEM F12 medium containing 2% horse serum. […] The background noise is determined by preparing additional control wells without MTX. […] The plates are stirred, the fluorescence is read at 380/460 nm using a so-called Victor device at time zero. […]
The fluorescence values make it possible to calculate a concentration-effect for each of the compounds. […]

[2] = system: human skeletal cells (SKM); assay: Protective effect on cell death induced by maitotoxin on human skeletal cells (SKM), WST-1; assay type: cell-based; conditions: read-out: EC50 (concentration which protects 50% of the cells from cell death)
Excerpt: Protective Effect of the Compounds According to the Invention on Cell Death Induced by Maitotoxin on Human Skeletal Cells (SKM)
The principle of the test is the following: maitotoxin is a toxin which causes the opening of the calcium channels of cells. The resulting intra-cellular flow of calcium is at the origin of the death of the cell. During this process of cell death, a cysteine-dependent protease, calpain, is activated, and an abundance of free radicals is produced. The test consists of incubating the cells in the presence of the molecules to be tested, in order to delay or inactivate cell death and thus determine the protective effect.
The myoblasts are seeded at 2500 cells per well in 96-well plates in a DMEM 10% FCS (foetal calf serum) culture medium supplemented with amphotericin B, human recombinant epidermal growth factor and dexamethasone. […]
After an incubation time of 3 h or 96 h, the culture medium is replaced by a DMEM 10% FCS medium supplemented by 10% WST-1, WST-1 (Roche, reference 1644807) is a reagent which stains metabolically active cells, i.e. live cells. […] Then the number of live cells is determined using a Perkin-Elmer Wallac Envision 2101 device by reading the absorbance at 450 nm. The concentration-effect of the products on the cell survival fraction is then calculated. […]

[3] = compound 50 μM as co-treatment with gentamycin 1 μg/ml

CC(=O)OC1OCC[C@@H]1NC(=O)[C@H](CC(C)C)NC(=N)c1ccc2c(c1)Nc1ccccc1S2.I (stereo partly drawn) [Example 4, (3S)-3-({N-[imino(10H-phenothiazin-2-yl)methyl]-L-leucyl}amino)tetrahydrofuran-2-yl acetate hydroiodide]
EC50 [1]: 51 µM
protection of the ciliated cells damaged by the gentamycin treatment [1, 3]: 36.2%
control % (% staining signal of the ciliated cells) ([1]; compound 50 μM as co-treatment with gentamycin 1 μg/ml, 24 hours, 5-day old fish, acetate hydroiodide): 49% and 49 ± 5%

CC(C)C[C@H](NC(=N)c1ccc2c(c1)Nc1ccccc1S2)C(=O)N[C@H]1CCOC1O.I (stereo partly drawn) [Example 5, N^1-[(3S)-2-hydroxytetrahydrofuran-3-yl]-N^2-[imino(10H-phenothiazin-2-yl)methyl]-L-leucinamide hydroiodide]
IC50 (calpain): < 20 µM
EC50 [1]: 32 µM
protection of the ciliated cells damaged by the gentamycin treatment [1, 3]: 40%
control % (% staining signal of the ciliated cells) ([1]; compound 50 μM as co-treatment with gentamycin 1 μg/ml, 24 hours, 5-day old fish, hydroiodide): 52% and 52 ± 10%

C[C@H]1C[C@@H]2[C@H]([C@@H](O)C[C@@]3(C)[C@H]2CC[C@]3(O)C(=O)CO)[C@@]2(C)C=CC(=O)C=C12 [a-methylprednisolone]
EC50 ([2]; after incubation for 3 hours in the presence of maitotoxin): 354 µM
EC50 ([2]; after incubation for 96 hours in the presence of maitotoxin): 196 µM

Gentamycin [reference compound]
loss of the ciliated cells following treatment with gentamycin ([1]; gentamycin 1 μg/ml alone, 24 hours): 80%
control % (% staining signal of the ciliated cells) ([1]; gentamycin 1 μg/ml alone, 24 hours (negative control)): 20 ± 0.6%
control % (% staining signal of the ciliated cells) ([1]; gentamycin 1 μg/ml alone, 24 hours (negative control), listed as gentamycin): 20%
